Measured values taken from US20130102595A1 (Curis, Inc., priority 2011, published 2013).

How the values were obtained:
[1] = test system: HDACs (HeLa cell nuclear extracts); experiment: HDAC enzymatic activity, Biomol Color de Lys system; format: biochemical; settings: 1 hour, 25° C.
Protocol: (E) an In Vitro Assay which Determines the Ability of a Test Compound to Inhibit HDAC Enzymatic Activity.
HDAC inhibitory activity was assessed using the Biomol Color de Lys system (AK-500, Biomol, Plymouth Meeting, Pa.). Briefly, HeLa cell nuclear extracts were used as a source of HDACs. Different concentrations of test compounds were serially diluted in dimethylsulphoxide (DMSO) and added to HeLa cell nuclear extracts in the presence of a colorimetric artificial substrate. Final assay condition contained 50 mM Tris/Cl, pH 8.0, 137 mM NaCl, 2.7 mM KCl and 1 mM MgCl2. Reactions were carried in room temperature (25° C.) for 1 hour before addition of developer for termination. Relative enzyme activity was measured in the WALLAC Victor II 1420 microplate reader as fluorescence intensity (excitation: 350-380 nm; emission: 440-460 nm). Data were analyzed using GraphPad Prism (v4.0a) with a sigmoidal dose response curve fitting for IC50 calculation.

PI3Kα (p110α/p85α) = molecular target: T1, PI3Kα (p110α/p85α) (Homo sapiens, UniProt P42336); experiment: PI3Kα ADP-Glo assay; format: biochemical; settings: 20 μM PIP2, 10 μM ATP, 30 minutes
T1 construct: GST (N); made in house; host or cells: Baculovirus-infected Sf9 cells
T1 sequence (P42336 whole entry): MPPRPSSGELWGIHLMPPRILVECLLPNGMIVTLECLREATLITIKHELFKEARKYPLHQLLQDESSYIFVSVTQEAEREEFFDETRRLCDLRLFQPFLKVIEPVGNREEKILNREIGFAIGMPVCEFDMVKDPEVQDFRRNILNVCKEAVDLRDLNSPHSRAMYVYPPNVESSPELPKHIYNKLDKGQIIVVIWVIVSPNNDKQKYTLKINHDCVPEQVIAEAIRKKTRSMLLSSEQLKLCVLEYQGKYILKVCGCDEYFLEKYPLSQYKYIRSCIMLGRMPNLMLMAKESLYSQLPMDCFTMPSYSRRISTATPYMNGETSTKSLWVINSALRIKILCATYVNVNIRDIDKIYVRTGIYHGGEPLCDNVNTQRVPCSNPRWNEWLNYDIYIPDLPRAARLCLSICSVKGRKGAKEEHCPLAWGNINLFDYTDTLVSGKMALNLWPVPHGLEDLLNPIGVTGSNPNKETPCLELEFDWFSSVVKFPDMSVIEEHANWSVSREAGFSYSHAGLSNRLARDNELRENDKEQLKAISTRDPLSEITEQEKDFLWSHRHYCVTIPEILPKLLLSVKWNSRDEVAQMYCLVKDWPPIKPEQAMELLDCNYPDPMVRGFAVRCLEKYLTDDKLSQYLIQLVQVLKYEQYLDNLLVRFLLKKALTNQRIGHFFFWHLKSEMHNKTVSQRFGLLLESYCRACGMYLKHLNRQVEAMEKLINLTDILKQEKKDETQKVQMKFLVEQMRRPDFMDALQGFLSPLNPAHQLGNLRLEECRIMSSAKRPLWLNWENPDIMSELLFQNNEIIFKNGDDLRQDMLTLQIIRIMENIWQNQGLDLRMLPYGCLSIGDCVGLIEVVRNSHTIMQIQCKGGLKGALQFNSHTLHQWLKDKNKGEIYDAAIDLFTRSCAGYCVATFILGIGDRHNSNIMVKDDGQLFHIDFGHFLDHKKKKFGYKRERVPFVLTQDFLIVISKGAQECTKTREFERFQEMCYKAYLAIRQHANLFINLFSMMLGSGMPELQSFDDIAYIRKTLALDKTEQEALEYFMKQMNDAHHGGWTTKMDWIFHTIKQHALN
T1 sequence (P27986 whole entry partner): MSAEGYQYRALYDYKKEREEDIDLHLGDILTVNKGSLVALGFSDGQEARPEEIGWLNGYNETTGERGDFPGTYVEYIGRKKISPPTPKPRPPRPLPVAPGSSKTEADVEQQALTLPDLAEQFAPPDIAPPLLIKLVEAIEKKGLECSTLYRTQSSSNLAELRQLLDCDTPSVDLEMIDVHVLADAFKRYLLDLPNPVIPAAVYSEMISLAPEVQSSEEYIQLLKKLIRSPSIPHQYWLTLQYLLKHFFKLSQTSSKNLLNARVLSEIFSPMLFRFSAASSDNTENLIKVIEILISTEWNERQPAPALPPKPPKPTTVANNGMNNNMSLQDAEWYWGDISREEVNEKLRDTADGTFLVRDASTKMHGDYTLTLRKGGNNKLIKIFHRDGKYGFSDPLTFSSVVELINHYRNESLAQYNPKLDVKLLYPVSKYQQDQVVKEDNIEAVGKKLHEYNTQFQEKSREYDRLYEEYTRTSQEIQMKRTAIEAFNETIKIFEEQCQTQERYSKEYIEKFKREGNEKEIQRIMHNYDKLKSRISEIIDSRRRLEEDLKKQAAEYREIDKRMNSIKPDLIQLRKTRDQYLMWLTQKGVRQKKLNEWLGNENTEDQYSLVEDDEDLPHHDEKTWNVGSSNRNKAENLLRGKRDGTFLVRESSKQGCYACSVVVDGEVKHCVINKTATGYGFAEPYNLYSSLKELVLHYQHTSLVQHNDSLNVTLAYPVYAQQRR
Protocol: (A) an In Vitro Assay which Determines the Ability of a Test Compound to Inhibit PI3Kα.
Activity of PI3Kα was measured using ADP-Glo assay from Promega. PI3Kα, a complex of N-terminal GST-tagged recombinant full-length human p110α (GenBank, Accession No. U79143) and N-terminal His tagged recombinant full length human p85a (GenBank Accession No. XM—043865) were co-expressed in a Baculovirus infected Sf9 cell expression system. The ADP-Glo assay was performed to measure the amount of ADP generated from ATP hydrolysis coupled with PIP2 phosphorylation by the purified recombinant PI3Kα (p110α/p85α). PI3Kα was incubated with 20 μM PIP2 substrate in the reaction buffer (50 mM HEPES, pH 7.4, 150 mM NaCl, 5 mM MgCl2, 1 mM DTT, 3 uM Naorthovanadate, 10 μM ATP and 0.5% DMSO) for 30 minutes at room temperature. The ADP generated was then detected by ADP-Glo assay from Promega, a luminescent ADP detection assay. The ADP-Glo assay is performed in two steps; first, after the kinase reaction, ADP-Glo Reagent is added to terminate the kinase reaction and deplete the remaining ATP. Second, the Kinase Detection Reagent is added to simultaneously convert ADP to ATP and allow the newly synthesized ATP to be measured using a luciferase/luciferin reaction.

| IC50 [1] [nM] | IC50 (PI3Kα (p110α/p85α)) [nM] | SMILES |
| --- | --- | --- |
| < 100 | 100 to 1000 | Cc1c(CN(C)c2ncc(C(=O)NO)cn2)sc2c(N3CCOCC3)nc(-c3cccc4[nH]ncc34)nc12 [Compound 68] |
| < 100 | 100 to 1000 | CC(C)(Nc1ncc(C(=O)NO)cn1)c1cc2nc(-c3cccc4[nH]ncc34)nc(N3CCOCC3)c2s1 [Compound 71] |
| < 100 | 100 to 1000 | O=C(NO)c1cnc(NCc2cc3cc(-c4cccc5[nH]ncc45)nc(N4CCOCC4)c3s2)nc1 [Compound 73] |
| < 100 | 100 to 1000 | CN(Cc1cc2cc(-c3cccc4[nH]ncc34)nc(N3CCOCC3)c2s1)c1ncc(C(=O)NO)cn1 [Compound 74] |
| 100 to 1000 | < 100 | CN(Cc1cc2nc(-c3cccc4[nH]ncc34)nc(N3CCOCC3)c2s1)c1ncc(/C=C/C(=O)NO)cn1 [Compound 75] |
| < 100 | < 100 | CN(Cc1cc2nc(-c3cccc4[nH]ncc34)nc(N3CCOCC3)c2s1)c1ccc(C(=O)NO)cc1 [Compound 79] |
| 100 to 1000 | < 100 | O=C(O)CN(Cc1cc2nc(-c3cccc4[nH]ncc34)nc(N3CCOCC3)c2s1)c1ncc(C(=O)NO)cn1 [Compound 88] |
| < 100 | < 100 | COCCN(Cc1cc2nc(-c3cccc4[nH]ncc34)nc(N3CCOCC3)c2s1)c1ncc(C(=O)NO)cn1 [Compound 90, 2-(((2-(1H-indazol-4-yl)-4-morpholinothieno[3,2-d]pyrimidin-6-yl)methyl)(2-methoxyethyl)amino)-N-hydroxypyrimidine-5-carboxamide] |
| < 100 | < 100 | O=C(NO)c1cnc(N(CCCO)Cc2cc3nc(-c4cccc5[nH]ncc45)nc(N4CCOCC4)c3s2)nc1 [Compound 91] |
| < 100 | < 100 | CCN(Cc1cc2nc(-c3cccc4[nH]ncc34)nc(N3CCOCC3)c2s1)c1ncc(C(=O)NO)cn1 [Compound 92] |
| < 100 | < 100 | NCCN(Cc1cc2nc(-c3cccc4[nH]ncc34)nc(N3CCOCC3)c2s1)c1ncc(C(=O)NO)cn1 [Compound 94] |
| 100 to 1000 | < 100 | CN(C)CCN(Cc1cc2nc(-c3cccc4[nH]ncc34)nc(N3CCOCC3)c2s1)c1ncc(C(=O)NO)cn1 [Compound 95] |
| < 100 | < 100 | CC(=O)NCCN(Cc1cc2nc(-c3cccc4[nH]ncc34)nc(N3CCOCC3)c2s1)c1ncc(C(=O)NO)cn1 [Compound 96] |
| < 100 | < 100 | NC(=O)CN(Cc1cc2nc(-c3cccc4[nH]ncc34)nc(N3CCOCC3)c2s1)c1ncc(C(=O)NO)cn1 [Compound 97] |
| < 100 | < 100 | C#CCCN(Cc1cc2nc(-c3cccc4[nH]ncc34)nc(N3CCOCC3)c2s1)c1ncc(C(=O)NO)cn1 [Compound 98] |
| 100 to 1000 | > 10000 | O=C(NO)c1ccc2c(ccn2Cc2cc3nc(-c4cccc5[nH]ncc45)nc(N4CCOCC4)c3s2)c1 [Compound 105] |
| 1000 to 10000 | < 100 | Cn1cc(CNc2cc3nc(-c4cccc5[nH]ncc45)nc(N4CCOCC4)c3s2)c2cc(C(=O)NO)ccc21 [Compound 106] |
| < 100 | < 100 | CN(Cc1cc2nc(-c3cnc(C(N)=O)nc3)nc(N3CCOCC3)c2s1)c1ncc(C(=O)NO)cn1 [Compound 122] |
| < 100 | > 10000 | CCN(CC)c1nc(-c2cccc3[nH]ncc23)nc2cc(CN(C)c3ncc(C(=O)NO)cn3)sc12 [Compound 158] |
| < 100 | 1000 to 10000 | CN(C)c1nc(-c2cccc3[nH]ncc23)nc2cc(CN(C)c3ncc(C(=O)NO)cn3)sc12 [Compound 159] |
| < 100 | > 10000 | COCCNc1nc(-c2cccc3[nH]ncc23)nc2cc(CN(C)c3ncc(C(=O)NO)cn3)sc12 [Compound 160] |

| IC50 [1] [nM] | IC50 (PI3Kα (p110α/p85α)) [nM] | SMILES |
| --- | --- | --- |
| < 100 | 100 to 1000 | CN(Cc1cc2nc(-c3cccc4[nH]ncc34)nc(NCCO)c2s1)c1ncc(C(=O)NO)cn1 [Compound 161] |
| < 100 | 1000 to 10000 | CN(Cc1cc2nc(-c3cccc4[nH]ncc34)nc(N(CCO)CCO)c2s1)c1ncc(C(=O)NO)cn1 [Compound 162] |
| < 100 | 100 to 1000 | COCCN(CCOC)c1nc(-c2cccc3[nH]ncc23)nc2cc(CN(C)c3ncc(C(=O)NO)cn3)sc12 [Compound 163] |
| < 100 | > 10000 | COc1ccc(Nc2nc(-c3cccc4[nH]ncc34)nc3cc(CN(C)c4ncc(C(=O)NO)cn4)sc23)cc1 [Compound 165] |
| < 100 | > 10000 | COc1cccc(Nc2nc(-c3cccc4[nH]ncc34)nc3cc(CN(C)c4ncc(C(=O)NO)cn4)sc23)c1 [Compound 166] |
| < 100 | 100 to 1000 | COc1ccccc1Nc1nc(-c2cccc3[nH]ncc23)nc2cc(CN(C)c3ncc(C(=O)NO)cn3)sc12 [Compound 167] |
| < 100 | 100 to 1000 | CN(Cc1cc2nc(-c3ccc4[nH]ccc4c3)nc(N3CCOCC3)c2s1)c1ncc(C(=O)NO)cn1 [Compound 192] |
| < 100 | > 10000 | CN(Cc1cc2nc(-c3ccc4c(c3)CCN4)nc(N3CCOCC3)c2s1)c1ncc(C(=O)NO)cn1 [Compound 193] |
| 100 to 1000 | 100 to 1000 | O=C(NO)c1ccc(CNCc2cc3nc(-c4cccc5[nH]ncc45)nc(N4CCOCC4)c3s2)cc1 [Compound 203] |
| 100 to 1000 | 100 to 1000 | O=C(/C=C/c1ccc(CNCc2cc3nc(-c4cccc5[nH]ncc45)nc(N4CCOCC4)c3s2)cc1)NO [Compound 204] |
| < 100 | 100 to 1000 | CN(Cc1cc2nc(-c3ccc(N)cc3)nc(N3CCOCC3)c2s1)c1ccc(C(=O)NO)cc1 [Compound 206] |
| < 100 | 100 to 1000 | Nc1ccc(-c2nc(N3CCOCC3)c3sc(CN4CCN(c5ncc(C(=O)NO)cn5)CC4)cc3n2)cc1 [Compound 207] |
| < 100 | > 10000 | Nc1ccc(-c2nc(N3CCOCC3)c3sc(CNCc4ccc(C(=O)NO)cc4)cc3n2)cc1 [Compound 209] |
| 100 to 1000 | 100 to 1000 | Nc1ccc(-c2nc(N3CCOCC3)c3sc(CNCc4ccc(/C=C/C(=O)NO)cc4)cc3n2)cc1 [Compound 210] |
| < 100 | 100 to 1000 | CCN(Cc1cc2nc(-c3ccc(N)cc3)nc(N3CCOCC3)c2s1)c1ncc(C(=O)NO)cn1 [Compound 215] |
| < 100 | < 100 | O=C(/C=C/c1cccc(S(=O)(=O)Nc2cc3nc(-c4cccc5[nH]ncc45)nc(N4CCOCC4)c3s2)c1)NO [Compound 216] |
| < 100 | < 100 | COc1ncc(-c2nc(N3CCOCC3)c3sc(NS(=O)(=O)c4ccc(/C=C/C(=O)NO)cc4)cc3n2)cn1 [Compound 219] |
| < 100 | < 100 | COc1ncc(-c2nc(N3CCOCC3)c3sc(NS(=O)(=O)c4cccc(/C=C/C(=O)NO)c4)cc3n2)cn1 [Compound 220] |
| < 100 | < 100 | CNc1ccc(-c2nc(N3CCOCC3)c3sc(NS(=O)(=O)c4ccc(/C=C/C(=O)NO)cc4)cc3n2)cn1 [Compound 223] |
| < 100 | < 100 | CNc1ccc(-c2nc(N3CCOCC3)c3sc(NS(=O)(=O)c4cccc(/C=C/C(=O)NO)c4)cc3n2)cn1 [Compound 224] |
